Measurements: patent US20100273206A1, “DIAGNOSTIC IN VITRO METHOD FOR ASSESSING VON WILLEBRAND DISEASE AND INCREASED BLEEDING RISK ASSOCIATED WITH VON WILLEBRAND DISEASE AND ACQUIRED OR CONGENITAL DISORDERS OF PLATELET FUNCTION” (priority 2007, published 2010)

Legend:
VWD type 1 patients = assay: In vivo therapy control (DDAVP); set-up: species or system human; conditions: three VWD type 1 patients; before, 30 min and 180 min after DDAVP
From the text: Therapy in VWD may be necessary to alleviate a bleeding episode or to prevent bleeding episode. Most individuals with type 1 VWD generally are managed effectively using DDAVP (Desmopressin acetate), which acts to release endogenous stored VWF. It is usual to conduct a trial of DDAVP and then monitor the response by subsequent blood sampling and testing. […] The method is a simple and rapid tool to discriminate responders from nonresponders to DDAVP. The advantage of this method is the close to immediate test time obtained. The result is available very soon after blood sampling. In contrast the VWF:CB result is generally obtained some days after blood sampling. The values for the amplitude ratio, the VWF:Ag and VWF-RCo are shown in figure 7 for three time points (before, 30 min after and 180 min after administration of DDAVP).

[1] = tested on: citrate-stabilized blood from a healthy patient; assay: TEG (Rotem) of kaolin-activated citrated blood incubated with increasing amounts of ristocetin; assay type: cell-based, human; conditions: 10 min incubation, increasing final ristocetin concentration (up to 1.05 mg/ml)
Method: Citrate-stabilized blood from a healthy patient was transferred to a vial containing a standardized kaolin reagent and mixed by inversion The kaolin reagent was purchased from Haemoscope Corporation. The mixture was mixed well and divided into two 500 μL aliquots. Different amounts of ristocetin at a concentration of 15 mg mL^−1 was added to one part of the activated blood aliquots and both samples were incubated on a mixer for 10 min. 300 μL of both aliquots were filled to TEG assay cups and 20 μL of 0.2 M CaCl2 were added. The TEG tracings were allowed to run as least until the maximal amplitude was reached using a Rotem Analyser. […] Dependent of the final ristocetin concentration a decrease of the maximal amplitude and an increase in the clotting time were observed.

[2] = tested on: citrate-stabilized blood (platelets and VWF); assay: TEG maximal amplitude with versus without ristocetin preincubation; assay type: cell-based, human; conditions: for maximal amplitude after ristocetin preincubation relative to maximal amplitude without preincubation: 25 μL of 15 mg/mL ristocetin per 500 μL, 10 min
Method: If TEG is the assay to determine the viscoelastic change the platelet activation in response to the activator of platelet aggregation for example ristocetin can by way of non limiting example be determined from the maximum amplitudes in the control without added platelet activator (MA) and the sample with the added platelet activator Ristocetin (MARistocetin): which can then be expressed as the ratio (MARistocetin/MA)*100. The percentage change is determined to assess individual subject's responses, thus providing an indication of relative response to a certain dose of ristocetin.
Analyser and the reagents were from Haemoscope Corporation. 1.3 mL of blood was collected in 3.18% trisodium citrate (1:9 anticoagulant to blood). One millilitre of citrate-stabilized blood was transferred to a vial containing a standardized kaolin reagent and mixed by inversion. The mixture was mixed well and divided into two 500 μL aliquots. 25 μL ristocetin at a concentration of 15 mg mL^−1 was added to one part of the activated blood aliquots and both samples were incubated on a mixer for 10 min. 360 μL of both aliquots were filled to TEG assay cups and 20 μL of 0.2 M CaCl2 were added. The TEG tracings were allowed to run as least until the maximal amplitude was reached.
According to the procedure in example 2 blood samples from healthy patients and patients with from VWD were tested. All VWD samples derived from patients diagnosed as having VWD using standard criteria. In addition to VWD plasma, a number of normal samples were also collected and used for comparative studies. The platelet activation in response to ristocetin is determined from the maximum amplitudes in the control (MA) and ristocetin activated trace (MARistocetin): MARicocetin/MA*100. The percentage change was calculated to assess individual subject's responses, thus providing an indication of relative response to a certain dose of ristocetin (0.71 mg/ml and 1,05 mg/ml final concentration). The Kaolin induced sample without adding ristocetin acted as the control measurement. […] Almost all platelets are deactivated and no more platelet contribution to the clot strength is detectable.

Compound	TEG ratio (maximal amplitude with ristocetin/without ristocetin)*100 (VWD type 1 patients)	VWF:Ag (VWD type 1 patients)	ristocetin cofactor activity (VWD type 1 patients)	clotting time [1]	maximal amplitude [1]	maximal amplitude after ristocetin preincubation relative to maximal amplitude without preincubation ([2]; blood from a VWD type 1 patient)	maximal amplitude after ristocetin preincubation relative to maximal amplitude without preincubation ([2]; blood from a VWD type 3 patient)	maximal amplitude after ristocetin preincubation relative to maximal amplitude without preincubation ([2]; normal blood)	clot strength after ristocetin incubation ([2]; patients with VWD, 0.71 mg/ml and 1,05 mg/ml final concentration)	maximum amplitude after incubation with ristocetin ([2]; patients without VWD, 0.71 mg/ml and 1,05 mg/ml final concentration)
NC(=O)CC[C@@H]1NC(=O)[C@H](Cc2ccccc2)NC(=O)[C@H](Cc2ccc(O)cc2)NC(=O)CCSSC[C@@H](C(=O)N2CCC[C@H]2C(=O)N[C@H](CCCN=C(N)N)C(=O)NCC(N)=O)NC(=O)[C@H](CC(N)=O)NC1=O [DDAVP, Desmopressin acetate]	normalize	increase	increase							
ristocetin				increase	decrease	about 75%	~100%	about 20%	not or only slightly modified	significant decrease
